Molecules are shown by their SMILES.

This test deals with Peptidyl-prolyl cis-trans isomerase A (Homo sapiens) (UniProt P62937). Briefly: Permeation ratio of cell-free CyP binding to intracellular CyP binding. The format is cell-based.
Chain of Peptidyl-prolyl cis-trans isomerase A (Homo sapiens) (P62937 whole entry, looked up): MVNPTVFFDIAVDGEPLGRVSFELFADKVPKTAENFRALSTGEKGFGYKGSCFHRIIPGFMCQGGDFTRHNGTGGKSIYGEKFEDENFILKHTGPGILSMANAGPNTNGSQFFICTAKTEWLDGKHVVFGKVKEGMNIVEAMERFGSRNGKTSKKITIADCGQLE
Turning to `CCCC[C@H]1C(=O)N[C@@H](C(C)C)C(=O)N[C@@H](Cc2cccc(O)c2)C(=O)N2CCC[C@H](N2)C(=O)O[C@H](/C(C)=C/C=C/CC[C@H](C)[C@@H](O)C[C@@H]2O[C@@]3(NC(=O)[C@@H](CC)C[C@@H]3C)[C@@H](C)[C@@H](O)[C@H]2C)C/C=C/C=C/[C@H](O)[C@H](C)[C@H]1O`, the Ratio worked out at 0.8.

In the case of `CC[C@H]1C[C@H](C)[C@@]2(NC1=O)O[C@@H](C[C@H](O)[C@@H](C)CCCCCC(C)[C@@H]1CCCCC[C@H](O)[C@H](C)[C@@H](O)[C@@H](CCC(C)=O)C(=O)N[C@@H](C(C)C)C(=O)N[C@@H](Cc3cccc(O)c3)C(=O)N3CCC[C@H](N3)C(=O)O1)[C@H](C)[C@H](O)[C@@H]2C` (stereo partly drawn), the Ratio is 65. To `CC[C@H]1C[C@H](C)[C@@]2(NC1=O)O[C@@H](C[C@H](O)[C@@H](C)CCCCCC(C)[C@@H]1CCCCC[C@H](O)[C@H](C)[C@@H](O)[C@@H](CCC(C)=O)C(=O)N[C@@H](C(C)C)C(=O)N[C@@H](Cc3ccccc3)C(=O)N3CCC[C@H](N3)C(=O)O1)[C@H](C)[C@H](O)[C@@H]2C` (stereo partly drawn) belongs 270.

Values taken from ChEMBL document CHEMBL1134103.
